{"source": "patent EP1032364B1", "about": "“TOPICAL COMPOSITIONS CONTAINING SIALYL SUGARS AND THEIR DERIVATIVES” (E-L Management Corp., priority 1998, dated 2000)", "key": {"PMN-endothelial cells": {"tested_on": "PMN-endothelial cells", "assay": "in vitro inhibition of adhesion of activated neutrophils to endothelial cells", "format": "cell-based", "conditions": "for % Inhibition of Adhesion: neutrophils activated with interleukin-1 or TPA", "description": "The following in vitro assay illustrates the effectiveness of the sialyl oligosaccharide derivative, 3' sialyl lactose, in inhibiting the adhesion of cells that express SLeX on their surfaces to cells expressing a selectin receptor. The ability of 3'-sialyl lactose to inhibit cell adhesion was tested using an in vitro assay system. Neutrophils were activated with either interleukin-1 or phorbol ester, TPA, to induce expression of selections and binding to endothelial cells. The activated neutrophils were treated with either 3'-sialyl lactose at 0.01 and 0.02%, sucrose at 4% or a positive control, and then assayed for their ability to bind to PMN-endothelial cells."}, "[1]": {"tested_on": "volunteers with a history of skin sensitivity to Balsam of Peru", "assay": "in vivo skin anti-irritancy test, Balsam of Peru challenge, redness by Minolta chromameter (Example 2)", "conditions": "for % Decrease In Redness: 20 min before Balsam of Peru, 7 volunteers; for preventing irritation caused by a topical irritant (in words): Balsam of Peru challenge, 0.1%", "description": "The following in vivo assay illustrates the effectiveness of sialyl oligosaccharide derivatives, 3'- and 6'-sialyl lactose, in preventing skin irritation. The in vivo assays used to assess efficacy of topical anti-irritants are known to those skilled in the art, examples of such assays may be found in Muizzuddin et al., 1990, J. Soc. Cosmet. Chem. 41:369-378, and Lubach et al. in Topical Corticoids, Maibach & Surber (eds.) Basel, Karger, 1992, pp. 26-41, both of which are incorporated herein by reference in their entirety. The skin anti-irritancy effects of 3'- and 6'- sialyl lactose were tested on 7 volunteers with a history of skin sensitivity to Balsam of Peru. The test compounds were applied to the ventral forearms of the panelists. The material was allowed to absorb for twenty minutes and then Balsam of Peru, an irritant, was applied to the test sites. Skin irritation was measured in terms of increase in skin redness.\nThe degree of redness was measured with the Minolta chromameter and compared with the positive and negative controls. The positive control was the color of skin treated with Balsam of Peru alone and the negative control was the skin treated with cola material challenged like the test material."}, "[2]": {"tested_on": "volunteers with a history of skin sensitivity to Balsam of Peru", "assay": "in vivo skin anti-irritancy test, Balsam of Peru challenge, redness by Minolta chromameter (Example 3)", "conditions": "0.1% topical on ventral forearm, 20 min before Balsam of Peru, 7 volunteers", "description": "The following in vivo assay illustrates the effectiveness of 3'-sialyl oligosaccharide derivatives in preventing skin irritation. The skin anti-irritancy effects of various derivatives of 3'-sialyl lactose were tested on 7 volunteers with a history of skin sensitivity to Balsam of Peru. The test compounds benzyl sialyl lactose and ethyl sialyl lactose were applied to the ventral forearms of the panelists. The material was allowed to absorb for twenty minutes and then Balsam of Peru, an irritant, was applied on the test sites. Skin irritation was measured in terms of increase in skin redness. The degree of redness was measured with the Minolta chromameter and compared with the positive and negative controls. The positive control was the color of skin treated with Balsam of Peru alone and the negative control was the skin treated with cola material challenged like the test material."}, "[3]": {"conditions": "0.1% topical on ventral forearm"}}, "note": "Values joined by “and” are separate entries in the source; they are usually repeats but may differ in a detail not shown here. Identical values can stand only once."}
{"compound": "OC[C@H]1O[C@@](CO)(O[C@H]2O[C@H](CO)[C@@H](O)[C@H](O)[C@H]2O)[C@@H](O)[C@@H]1O", "note": "[Sucrose, reference compound]", "values": [{"measurement": "% Inhibition of Adhesion", "setting": "PMN-endothelial cells; test compound at 4.0%", "value": 40, "unit": "%"}]}
{"compound": "C[C@]12CCC(=O)C=C1CC[C@@H]1[C@@H]2[C@@H](O)C[C@@]2(C)[C@H]1CC[C@]2(O)C(=O)CO", "note": "[Hydrocortisone, reference compound]", "values": [{"measurement": "% Decrease In Redness", "setting": "[1]; 0.5% topical on ventral forearm", "value": 66, "unit": "%"}]}
{"compound": "ethyl sialyl lactose", "values": [{"measurement": "% Decrease In Redness", "setting": "[2]", "value": 40.6, "unit": "%"}, {"measurement": "% Decrease In Redness", "setting": "[2]; listed as lactose ethyl", "value": 40.6, "unit": "%"}]}
{"compound": "CC(=O)N[C@H]1[C@H]([C@H](O)[C@H](O)CO)OC(O)(C(=O)O)C[C@@H]1O", "note": "(some centres unmarked) [Sialic Acid, reference compound]", "values": [{"measurement": "% Decrease In Redness", "setting": "[1]; [3]", "value": 31, "unit": "%"}]}
{"compound": "benzyl sialyl lactose", "values": [{"measurement": "% Decrease In Redness", "setting": "[2]", "value": 42.47, "unit": "%"}, {"measurement": "% Decrease In Redness", "setting": "[2]; listed as benzyl sialyl lactose", "value": 42.47, "unit": "%"}]}
{"compound": "CC(=O)N[C@H]1[C@H]([C@H](O)[C@H](O)CO)O[C@@](O[C@H]2[C@@H](O)[C@@H](CO)O[C@@H](O[C@H]3[C@H](O)[C@@H](O)C(O)O[C@@H]3CO)[C@@H]2O)(C(=O)O)C[C@@H]1O", "note": "(some centres unmarked) [3'-Sialyl lactose, 3'-N acetylneuraminyl-lactose]", "values": [{"measurement": "inhibiting the adhesion of cells that express SLeX to cells expressing a selectin receptor (in words)", "setting": "PMN-endothelial cells; 0.02%, IL-1 induced neutrophils", "value": "very effective"}, {"measurement": "% Inhibition of Adhesion", "setting": "PMN-endothelial cells; test compound at 0.01%", "value": 39, "unit": "%"}, {"measurement": "% Inhibition of Adhesion", "setting": "PMN-endothelial cells; test compound at 0.02%", "value": 61, "unit": "%"}, {"measurement": "% Decrease In Redness", "setting": "[1]; [3]", "value": "69% and 67%"}, {"measurement": "preventing irritation caused by a topical irritant (in words)", "setting": "[1]", "value": "significant activity"}]}
{"compound": "CC(=O)N[C@H]1[C@H]([C@H](O)[C@H](O)CO)O[C@@](O[C@H]2[C@@H](O)[C@@H](CO)O[C@@H](O[C@H]3[C@H](O[C@@H]4O[C@@H](C)[C@@H](O)[C@@H](O)[C@@H]4O)[C@@H](NC(C)=O)C(O)O[C@@H]3CO)[C@@H]2O)(C(=O)O)C[C@@H]1O", "note": "(some centres unmarked) [Sialyl Lewis X, NeuAcα2-3βGalβ1-4(Fucα1-3)GlcNAc, reference compound]", "values": [{"measurement": "% Decrease In Redness", "setting": "[1]; [3]", "value": 66, "unit": "%"}]}
{"compound": "CC(=O)N[C@H]1[C@H]([C@H](O)[C@H](O)CO)O[C@@](OC[C@H]2O[C@@H](O[C@H]3[C@H](O)[C@@H](O)[C@H](O)O[C@@H]3CO)[C@H](O)[C@@H](O)[C@H]2O)(C(=O)O)C[C@@H]1O", "note": "[6'-Sialyl lactose, 6'-sialyl lactose]", "values": [{"measurement": "% Decrease In Redness", "setting": "[1]; [3]", "value": 57, "unit": "%"}, {"measurement": "preventing irritation caused by a topical irritant (in words)", "setting": "[1]", "value": "significant activity"}]}
{"compound": "OC[C@H]1O[C@@H](O[C@H]2[C@H](O)[C@@H](O)C(O)O[C@@H]2CO)[C@H](O)[C@@H](O)[C@H]1O", "note": "(some centres unmarked) [Lactose, reference compound]", "values": [{"measurement": "% Decrease In Redness", "setting": "[1]; [3]", "value": 45, "unit": "%"}, {"measurement": "preventing irritation caused by a topical irritant (in words)", "setting": "[1]", "value": "ineffective"}]}
